Experimental findings from patent US7429679B2, “Sulphonic acid salt of sibutramine” (CJ Corporation, priority 2005, dated 2008) are described below.

Holding throughout (type): physicochemical
The nature of data set [1]: Evaluation of hygroscopicity: water content (K.F.) after exposure to humid conditions at 25° C. The protocol: The sulphonic acid salts of sibutramine, prepared in Examples 1 to 5, and sibutramine hydrochloride monohydrate were exposed to humid conditions (10%, 75% and 90% RH) at 25° C. for a period of three days or one week. Then, the water content (K.F. water %) of the samples was measured.

Data set [2] is described as follows: Evaluation of solubility in distilled water and aqueous solutions having various pH values.
Data set [3] is described as follows: Evaluation of stability: stringent 60° C. heat treatment, content by HPLC. Set-up: content (HPLC) upon 60° C. heat treatment: reference not given here. The procedure:
The sulphonic acid salts of sibutramine, prepared in Examples 1 to 5, and sibutramine hydrochloride monohydrate were exposed to a stringent 60° C. heat treatment.
HPLC was performed under the following conditions.
Wavelength of UV detection: 225 nm
Column: octadecyl silica gel, C18 (4.6×150 mm, 5 μm)
Mobile phase: an aqueous solution of ammonium phosphate monohydride (0.05 M) (adjusted to pH 6 with phosphoric acid): acetonitrile=35:65

Data set [4] in a line: Evaluation of light stability: exposure to fluorescence at 25° C., ICH light stability test chamber, content by HPLC. More on the design: content (HPLC) in light stability test: reference not given here. The protocol:
A light stability test was performed as follows. The sulphonic acid salts of sibutramine, prepared in Examples 1 to 5, and sibutramine hydrochloride monohydrate were exposed to fluorescence at 25° C. using a light stability test chamber suitable for the ICH guideline, for storage periods of 1, 2 and 4 weeks.

Where a name gives a salt, the structure may show the parent alone. Read-outs that look alike come from different tables or passages of the source.

On to `CC(C)CC(N(C)C)C1(c2ccc(Cl)cc2)CCC1` (stereo not drawn) [Besylate, sibutramine besylate], for which the “water content (K.F. water %)” value in data set [1] (10% relative humidity, 25° C., 1 week, listed as Bensylate) was determined as 0.02%; in data set [1] (10% relative humidity, 25° C., 3 days, listed as Bensylate), 0.02%; in data set [1] (75% relative humidity, 25° C., 1 week, listed as Bensylate), 0.05%; in data set [1] (75% relative humidity, 25° C., 3 days, listed as Bensylate) it was 0.02%; in data set [1] (90% relative humidity, 25° C., 1 week, listed as Bensylate), 0.05%; in data set [1] (90% relative humidity, 25° C., 3 days, listed as Bensylate), 0.05%. Also, in data set [1] (Initial, listed as Bensylate), the “water content (K.F. water %)” value worked out at 0.02%. In data set [1] (relative humidities of 10%, 75% and 90%, up to one week or longer), the “change in water content under humid conditions (in words)” value is on record as “almost no change in water content”. The solubility is 19180 µg/mL in data set [2] (DW (distilled water)); above 3000 µg/mL in data set [2] (aqueous buffer, distilled water (DW) and buffer solutions at various pH values, read-out: solubility against the solubility sufficient for preparing pharmaceutical formulations such as capsules); 15180 µg/mL in data set [2] (pH 1.2); 8510 µg/mL in data set [2] (pH 4.0); 5720 µg/mL in data set [2] (pH 5.3); 21860 µg/mL in data set [2] (pH 6.8). Besides, in data set [2] (pH 7.4), the solubility is 7010 µg/mL. Moreover, the “solubility compared to sibutramine hydrochloride monohydrate (in words)” value in data set [2] (distilled water (DW) and buffer solutions at various pH values) is “slightly lower solubility than sibutramine hydrochloride monohydrate”; in data set [2] (distilled water (DW) and buffer solutions at various pH values, listed as besylate), “slightly low solubility compared to sibutramine hydrochloride monohydrate”. Besides, the “content (HPLC) upon 60° C. heat treatment” value in data set [3] (60° C., 1 wk) was 1.000; in data set [3] (60° C., 2 wks) it was 0.999; in data set [3] (60° C., 4 wks), 1.000; in data set [3] (Initial), 1.000. Moreover, the “content (HPLC) in light stability test” value in data set [4] (Initial) is recorded as 1.000; in data set [4] (fluorescence, 25° C., 1 wk), 1.000; in data set [4] (fluorescence, 25° C., 2 wks), 0.999; in data set [4] (fluorescence, 25° C., 4 wks), 0.999.

As for `CC(C)CC(N(C)C)C1(c2ccc(Cl)cc2)CCC1` (stereo not drawn) [HCl monohydrate, sibutramine hydrochloride monohydrate, reference compound], the “water content (K.F. water %)” value in data set [1] (10% relative humidity, 25° C., 1 week, hydrochloride monohydrate) is given as 5.48%; in data set [1] (10% relative humidity, 25° C., 3 days, hydrochloride monohydrate) it was 5.51%; in data set [1] (75% relative humidity, 25° C., 1 week, hydrochloride monohydrate), 5.50%; in data set [1] (75% relative humidity, 25° C., 3 days, hydrochloride monohydrate), 5.49%; in data set [1] (90% relative humidity, 25° C., 1 week, hydrochloride monohydrate), 5.49%; in data set [1] (90% relative humidity, 25° C., 3 days, hydrochloride monohydrate) it was 5.50%. Besides, in data set [1] (Initial, hydrochloride monohydrate), the “water content (K.F. water %)” value came to 5.50%. The “content (HPLC) upon 60° C. heat treatment” value in data set [3] (60° C., 1 wk, hydrochloride monohydrate) came to 0.999; in data set [3] (60° C., 2 wks, hydrochloride monohydrate), 0.999; in data set [3] (60° C., 4 wks, hydrochloride monohydrate) it was 0.999; in data set [3] (Initial), 1.000. The “change in content / impurities upon 60° C. heat treatment (in words)” value in data set [3] (60° C., up to one month or longer) was “almost no change in content”. The “content (HPLC) in light stability test” value in data set [4] (Initial) is 1.000; in data set [4] (fluorescence, 25° C., 1 wk, hydrochloride monohydrate) it was 0.999; in data set [4] (fluorescence, 25° C., 2 wks, hydrochloride monohydrate), 1.000; in data set [4] (fluorescence, 25° C., 4 wks, hydrochloride monohydrate), 0.999. In addition, the “light stability (in words)” value in data set [4] (content changes analyzed by HPLC) is “good light stability”.

Broadly, the solubility is how much of the substance goes into solution per volume.
